The text below walks through data of publication PMC8394033, “Cytocidal Antitumor Effects against Human Ovarian Cancer Cells Induced by B-Lactam Steroid Alkylators with Targeted Activity against Poly (ADP-Ribose) Polymerase (PARP) Enzymes in a Cell-Free Assay” (Biomedicines, 2021).

Structures are written as SMILES. Where “and” joins values, the source holds several entries; their conditions need not be identical. Equal values may be shown once. Read-outs that look alike come from different tables or passages of the source. Marks after values point to notes of the source that are not given here.

Data set [1] concerns PHA-stimulated PBMCs (T-lymphocytes) from healthy donors. The data set is described as follows: Sister chromatid exchanges (SCEs) assay, genotoxicity and PRI.
In data set [2] the test system is UWB1.289. The conditions noted are these: for GI50: read-out: GI50 ±SEM (50% inhibition of cell growth, cytostatic); for IC50: read-out: IC50 ±SEM (50% cytocidal effect, cytotoxic).
The next data set can be described thus: in vitro. To be noted: human.
Data set [3] has as its system SKOV-3. The conditions noted are these: human.
For data set [4], the system named is SKOV-3. The conditions noted are these: for GI50: read-out: GI50 ±SEM (50% inhibition of cell growth, cytostatic); for IC50: read-out: IC50 ±SEM (50% cytocidal effect, cytotoxic).
The subject of another data set is PARP2 mRNA (PARP2/ACTB). The data set is described as follows: PARP2 mRNA expression analysis by qRT-PCR. The class given is cell-based, human. To be noted: UWB1.289, vs untreated cells, 20 and 40 μΜ, 72 h. Background: In qPCR the cycle at which signal appears reflects the starting amount.
In data set [5] the test system is UWB1.289. The conditions noted are these: human.
In the next data set the test system is MRC-5. The data set is described as follows: MTT assay, selectivity on normal lung fibroblasts. The conditions noted are these: for GI50: Homo sapiens, MRC5, 48 h, read-out: GI50 ±SEM (50% inhibition of cell growth, cytostatic). (Tetrazolium assays rely on reduction of a dye to a coloured formazan, in cell work by metabolically active cells.)
For data set [6], the system named is PHA-stimulated PBMCs (T-lymphocytes) from healthy donors. The conditions noted are these: human.
Data set [7] has as its system UWB1.289. To be noted: human. The source holds these as a separate data set.
For data set [8], the system named is OVCAR-3. To be noted: for GI50: read-out: GI50 ±SEM (50% inhibition of cell growth, cytostatic); for IC50: read-out: IC50 ±SEM (50% cytocidal effect, cytotoxic).
In data set [9] the test system is OVCAR-3. To be noted: human.
In data set [10] the test system is UWB1.289. The data set is described as follows: Sister chromatid exchanges (SCEs) assay, genotoxicity and PRI.
The test system of the next data set is PARP1 mRNA (PARP1/ACTB). The class given is cell-based, human.
The nature of data set [11]: MTT assay, selectivity on normal lung fibroblasts. The conditions noted are these: human, MRC-5 normal lung fibroblasts.

By GI50 is commonly meant the concentration giving 50% growth inhibition. The IC50 is the concentration that gives 50% inhibition. In the case of `CC12CCC3C(NC(=O)C=C4CC(OC(=O)CCOc5ccc(N(CCCl)CCCl)cc5)CCC43C)C1CCC(=O)N2` (stereo not shown) [ASA-B, 11a,13a-dimethyl-2,6-dioxo-2,3,4,4a,4b,5,6,8,9,10,11,11a,11b,12,13,13a-hexadecahydro-1H-benzo[4,5]azepino [2,3-f]quinolin-9-yl 3-(4-(bis(2-chloroethyl)amino)phenoxy)propanoate], the “Mean PRI ± SD” value in data set [1] came to 2.23 ± 0.12. The “PRI (Proliferation Rate Index)” value in data set [1] is 2.30 and 2.18 and 2.04 and 2.34 and 2.29; with UWB1.289 [10], 1.77 *. The “TGI ±SEM (100% cell growth inhibition, cytostatic)” value in the data set with UWB1.289 [2] was 35 ± 3.63 µM; in the data set with SKOV-3 [4] it was 51 ± 4.46 µM; in the data set with MRC-5, over 100 µM; in the data set on OVCAR-3 [8] it was 81 ± 7.82 µM. Besides, the GI50 in the data set on UWB1.289 [2] worked out at 10 ± 0.81 µM; with SKOV-3 [4], 24 ± 2.42 µM; with MRC-5 it was 86 ± 9.95 µM; in the data set with OVCAR-3 [8], 44 ± 5.04 µM. For the same compound, the IC50 in “in vitro” is over 100 µM; in the data set with SKOV-3 [3], 98 ± 8.97 µM; in the data set with UWB1.289 [7] it was 54 ± 5.11 µM; in the data set with OVCAR-3 [9], over 100 µM. For the same compound, the “increase of the PARP2/ACTB mRNA ratio” value with PARP2 mRNA (PARP2/ACTB) is on record as 140- to150 fold. The “SCE/Chromosome ± SEM” value with UWB1.289 [5] is given as 1.17 ± 0.07. The “SCEs/Metaphase ± SEM” value in the data set with UWB1.289 [5] was 86.76 ± 4.97. Moreover, the “Mean SCE/Chromosome ± SD” value in data set [6] stood at 0.86 ± 0.06. Besides, the “Mean SCEs/metaphase Mean ± SD” value in [6] was determined as 39.54 ± 2.84.

As to `CC(C)CCCC(C)[C@H]1CCC2C3NC(=O)C=C4C[C@@H](OC(=O)CCOc5ccc(N(CCCl)CCCl)cc5)CC[C@]4(C)C3CC[C@@]21C` (stereo partly drawn) [ASA-C, 7a,9a-dimethyl-10-((R)-6-methylheptan-2-yl)-2-oxo-1,2,4,5,6,7,7a,7b,8,9,9a,10,11,12,12a,12b-hexadecahydrobenzo[d]indeno[4,5-b]azepin-5-yl 3-(4-(bis(2-chloroethyl)amino)phenoxy)propanoate], in data set [1], the “Mean PRI ± SD” value came out at 2.612 ± 0.13. In addition, the “PRI (Proliferation Rate Index)” value was 2.48 and 2.72 and 2.47 and 2.65 and 2.74 in data set [1]; 2.15 in the data set on UWB1.289 [10]. The “TGI ±SEM (100% cell growth inhibition, cytostatic)” value with UWB1.289 [2], in the data set on SKOV-3 [4], in the data set with MRC-5 and in the data set with OVCAR-3 [8] was over 100 µM throughout. Moreover, the GI50 is 73 ± 7.58 µM in the data set with UWB1.289 [2], over 100 µM in the data set with SKOV-3 [4], over 100 µM with MRC-5 and over 100 µM with OVCAR-3 [8]. For the same compound, the IC50 in “in vitro”, with SKOV-3 [3], in the data set with UWB1.289 [7] and in the data set on OVCAR-3 [9] was over 100 µM each time. For the same compound, the “SCE/Chromosome ± SEM” value with UWB1.289 [5] was 0.33 ± 0.02. For the same compound, the “SCEs/Metaphase ± SEM” value in the data set with UWB1.289 [5] came to 24.53 ± 1.72. The “Mean SCE/Chromosome ± SD” value in data set [6] came to 0.19 ± 0.08. For the same compound, the “Mean SCEs/metaphase Mean ± SD” value in data set [6] came out at 8.81 ± 0.4.

Consider `C[C@]12CC[C@H](OC(=O)CCOc3ccc(N(CCCl)CCCl)cc3)CC1=CC(=O)NC1C2CC[C@]2(C)C(=O)CCC12` (stereo partly shown) [ASA-A, 7a,9a-dimethyl-2,10-dioxo-1,2,4,5,6,7,7a,7b, 8,9,9a,10,11,12,12a,12b-hexadecahydrobenzo[d]indeno [4,5-b]azepin-5-yl 3-(4-(bis(2-chloroethyl)amino)phenoxy)propanoate], for which the “Mean PRI ± SD” value in data set [1] worked out at 2.18 ± 0.13. For the same compound, the “PRI (Proliferation Rate Index)” value in data set [1] was 2.13 and 2.21 and 1.98 and 2.32 and 2.26; in the data set with UWB1.289 [10] it was 1.88 *. For the same compound, the “TGI ±SEM (100% cell growth inhibition, cytostatic)” value was 52 ± 4.61 µM in the data set on UWB1.289 [2], 33 ± 2.79 µM in the data set with SKOV-3 [4], over 100 µM in the data set on MRC-5 and 38 ± 2.95 µM in the data set with OVCAR-3 [8]. Further, the GI50 with UWB1.289 [2] came to 19 ± 1.83 µM; in the data set on SKOV-3 [4] it was 15 ± 1.26 µM; in the data set on MRC-5, 69 ± 7.13 µM; in the data set with OVCAR-3 [8] it was 29 ± 3.04 µM. The IC50 in the data set “in vitro” was over 100 µM; in the data set on SKOV-3 [3], 67 ± 7.11 µM; with UWB1.289 [7] it was 71 ± 7.01 µM; in the data set with OVCAR-3 [9], 47 ± 4.82 µM. Further, in the data set with UWB1.289 [5], the “SCE/Chromosome ± SEM” value is on record as 1.0 ± 0.054. Besides, in the data set on UWB1.289 [5], the “SCEs/Metaphase ± SEM” value was determined as 73.78 ± 4.03. Besides, the “Mean SCE/Chromosome ± SD” value in data set [6] is on record as 0.66 ± 0.04. In addition, the “Mean SCEs/metaphase Mean ± SD” value in [6] is on record as 30.28 ± 2.03.

With `NC(=O)c1cccc(N)c1` [3-AB, 3-Aminobenzamide, reference compound], in data set [1] (mean of 5 donors' PBMCs, 3 μM), the “Mean PRI ± SD” value was determined as 2.696 ± 0.12, the “Mean SCE/Chromosome ± SD” value worked out at 0.30 ± 0.03 and the “Mean SCEs/metaphase Mean ± SD” value was 14.03 ± 1.24. In the data set with UWB1.289 [2] (UWB1.289, 48 h treatment, MTT), the “TGI ±SEM (100% cell growth inhibition, cytostatic)” value is over 100 µM; the GI50 was 92 ± 13 µM; the IC50 is over 100 µM. In the data set with SKOV-3 [4] (SKOV-3, 48 h treatment, MTT), the “TGI ±SEM (100% cell growth inhibition, cytostatic)” value was over 100 µM; the GI50 was over 100 µM; the IC50 is over 100 µM. The “alterations in the PARP1/ACTB mRNA cellular content” value in the data set on PARP1 mRNA (PARP1/ACTB) is reported as “non-significant alterations”. Moreover, in the data set on MRC-5, the GI50 was over 100 µM. Further, the “TGI ±SEM (100% cell growth inhibition, cytostatic)” value with MRC-5 (MRC-5 normal human lung fibroblasts, 48 h treatment, MTT) was over 100 µM. Also, in [11], the IC50 at 48 h was over 100 µM. For the same compound, in the data set on OVCAR-3 [8] (OVCAR-3, 48 h treatment, MTT), the “TGI ±SEM (100% cell growth inhibition, cytostatic)” value was over 100 µM; the GI50 is over 100 µM; the IC50 is over 100 µM. Also, in the data set with UWB1.289 [10] (UWB1.289, 3 μM), the “SCE/Chromosome ± SEM” value came out at 0.43 ± 0.025 and the “SCEs/Metaphase ± SEM” value amounted to 31.91 ± 1.88.

As for `O=C(c1cc(Cc2n[nH]c(=O)c3ccccc23)ccc1F)N1CCN(C(=O)C2CC2)CC1` [Olaparib], the “PRI (Proliferation Rate Index)” value in data set [1] (Donor 1 PBMCs, 3 μM) was 2.60; in [1] (Donor 2 PBMCs, 3 μM), 2.56; in data set [1] (Donor 3 PBMCs, 3 μM), 2.47; in [1] (Donor 4 PBMCs, 3 μM) it was 2.76; in [1] (Donor 5 PBMCs, 3 μM) it was 2.34; with UWB1.289 [10] (UWB1.289, 3 μM), 1.98 *. The “SCE/Chromosome ± SEM” value in data set [1] (Donor 1 PBMCs, 3 μM) came to 0.44 ± 0.02; in data set [1] (Donor 2 PBMCs, 3 μM) it was 0.47 ± 0.03; in data set [1] (Donor 3 PBMCs, 3 μM), 0.52 ± 0.03; in data set [1] (Donor 4 PBMCs, 3 μM), 0.48 ± 0.03; in [1] (Donor 5 PBMCs, 3 μM), 0.55 ± 0.04; in the data set on UWB1.289 [10] (UWB1.289, 3 μM), 0.90 ± 0.06. For the same compound, the “SCEs/Metaphase ± SEM” value in [1] (Donor 1 PBMCs, 3 μM) worked out at 20.43 ± 1.1; in [1] (Donor 2 PBMCs, 3 μM), 21.6 ± 1.4; in data set [1] (Donor 3 PBMCs, 3 μM), 23.87 ± 1.5; in data set [1] (Donor 4 PBMCs, 3 μM), 21.92 ± 1.2; in data set [1] (Donor 5 PBMCs, 3 μM), 25.32 ± 1.6; in the data set with UWB1.289 [10] (UWB1.289, 3 μM), 66.78 ± 4.45. Also, the “Mean PRI ± SD” value in [1] (mean of 5 donors' PBMCs, 3 μM) came out at 2.546 ± 0.16. The “Mean SCE/Chromosome ± SD” value in data set [1] (mean of 5 donors' PBMCs, 3 μM) stood at 0.66 ± 0.04. Moreover, in data set [1] (mean of 5 donors' PBMCs, 3 μM), the “Mean SCEs/metaphase Mean ± SD” value was 22.63 ± 1.95. Further, the “TGI ±SEM (100% cell growth inhibition, cytostatic)” value in the data set with UWB1.289 [2] was 85 ± 9.34 µM; with SKOV-3 [4], over 100 µM; in the data set with MRC-5, over 100 µM; with OVCAR-3 [8], over 100 µM. Further, the GI50 in the data set on UWB1.289 [2] was 14 ± 1.78 µM; in the data set with SKOV-3 [4], over 100 µM; with MRC-5, over 100 µM; with OVCAR-3 [8] it was 32 ± 4.64 µM. For the same compound, the IC50 with UWB1.289 [2] (UWB1.289, 48 h treatment, MTT) is over 100 µM; with SKOV-3 [4] (SKOV-3, 48 h treatment, MTT), over 100 µM; in the data set with OVCAR-3 [8] (OVCAR-3, 48 h treatment, MTT), over 100 µM. This compound had an IC50 at 48 h in data set [11] of over 100 µM.
